The values that follow come from patent EP2061765B1, “Serine-threonine protein kinase and PARP modulators” (Senhwa Biosciences, Inc., priority 2006, dated 2008).

For assay [1], the system named is BxPC3. Briefly: Cell proliferation assay (Alamar Blue). The assay is classed as cell-based. As to conditions: Homo sapiens, BXPC-3, 96 h, BxPC3 cells, four days. The method in brief:
(§1)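 Plate 4,000-5,000 cells per well, add 2X compound dilutions, and incubate four days at 37°C, 5% CO2. Add Alamar Blue, incubate four hours, then record fluorescence (544/590 nm).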
A general note: The colour change of resazurin is a common sign of viable cells or microbes.

For assay [2], the system named is PanC1. Nature of the assay: Cell proliferation assay (Alamar Blue). The class given is cell-based. As to conditions: Homo sapiens, PANC-1, 96 h, PanC1 cells, four days. The method in brief:
as §1

As usually defined, the IC50 is the concentration at which inhibition is half-maximal. Low readings indicate inhibition by little substance, high ones a need for much substance. With `C#Cc1cccc(Nc2nc3cc(C(=O)O)ccc3c3cnc(NCCC)nc23)c1` [drawing 471], the IC50 in assay [1] is 3 µM; in assay [2], 8.12 µM.

As for `C#Cc1cccc(Nc2nc3cc(C(=O)O)ccc3c3cnc(NCCOC)nc23)c1` [drawing 472], the IC50 came out at 1.17 µM in assay [1] and 4.61 µM in assay [2].

As to `C#Cc1cccc(Nc2nc3cc(C(=O)O)ccc3c3cnc(NC4CCNCC4)nc23)c1` [drawing 473], the IC50 is 25.3 µM in assay [1] and above 50 µM in assay [2].

`C#Cc1cccc(Nc2nc3cc(C(=O)O)ccc3c3cnc(NCCCN4CCOCC4)nc23)c1` [drawing 474]: the IC50 in assay [1] came out at 3.6 µM; in assay [2] it was 11.2 µM.

With `C#Cc1cccc(Nc2nc3cc(C(=O)O)ccc3c3cnc(NC)nc23)c1` [drawing 475], the IC50 worked out at 1.6 µM in assay [1] and 13.8 µM in assay [2].

As to `O=C(O)c1ccc2c(c1)nc(Nc1ccc(Cl)c(C(F)(F)F)c1)c1ccncc12` [drawing 476], the IC50 came to 2.6 µM in assay [1] and 17.9 µM in assay [2].

Turning to `O=C(O)c1ccc2c(c1)nc(Nc1cccc(Cl)c1)c1nc(NC3CC3)ncc12` [drawing 477], the IC50 in assay [1] came to 1.95 µM; in assay [2], 4.61 µM.

As for `O=C(O)c1ccc2c(c1)nc(Nc1cccc(C(F)(F)F)c1)c1ncncc12` [drawing 478], the figures for the IC50 in assay [1] and in assay [2] were 4.31 µM and 35.2 µM, respectively.

For `CCOc1ncc2c(n1)c(Nc1cccc(C(F)(F)F)c1)nc1cc(C(=O)O)ccc12` [drawing 479], the IC50 is 49.6 µM in assay [1] and above 50 µM in assay [2].

Turning to `CNc1ncc2c(n1)c(Nc1cccc(Cl)c1)nc1cc(C(=O)O)ccc12` [drawing 480], the values for the IC50 in assay [1] and in assay [2] were 2.56 µM and 8.3 µM, respectively.

In the case of `CN(C)c1ncc2c(n1)c(Nc1cccc(Cl)c1)nc1cc(C(=O)O)ccc12` [drawing 481], the figures for the IC50 in assay [1] and in assay [2] were 42.7 µM and above 50 µM, respectively.

As to `Nc1ncc2c(n1)c(Nc1cccc(Cl)c1)nc1cc(C(=O)O)ccc12` [drawing 482], the IC50 in assay [1] is 0.61 µM; in assay [2] it was 3.62 µM.

For `CC(C)Nc1ncc2c(n1)c(Nc1cccc(Cl)c1)nc1cc(C(=O)O)ccc12` [drawing 483], the IC50 in assay [1] was 36.9 µM; in assay [2] it was 33.2 µM.

On to `O=C(O)c1ccc2c(c1)nc(Nc1cccc(C(F)(F)F)c1)c1nc(NC3CC3)ncc12` [drawing 484], for which the IC50 amounted to 10 µM in assay [1] and 2.03 µM in assay [2].

In the case of `CCNc1ncc2c(n1)c(Nc1cccc(Cl)c1)nc1cc(C(=O)O)ccc12` [drawing 485], the 50% inhibitory concentration (IC50) was 2.37 µM in assay [1] and 1.61 µM in assay [2].

`CNc1ncc2c(n1)c(Nc1ccc(F)c(Cl)c1)nc1cc(C(=O)O)ccc12` [drawing 486]: the figures for the IC50 in assay [1] and in assay [2] were 1.46 µM and above 50 µM, respectively.

For `Nc1ncc2c(n1)c(Nc1ccc(F)c(Cl)c1)nc1cc(C(=O)O)ccc12` [drawing 487], the IC50 came to 0.7 µM in assay [1] and 8.03 µM in assay [2].

On to `O=C(O)c1ccc2c(c1)nc(Nc1ccc(F)c(Cl)c1)c1nc(NC3CC3)ncc12` [drawing 488], for which the IC50 in assay [1] stood at 9.48 µM; in assay [2], 8.53 µM.

On to `COCCNc1ncc2c(n1)c(Nc1ccc(F)c(Cl)c1)nc1cc(C(=O)O)ccc12` [drawing 489], for which the results for the IC50 in assay [1] and in assay [2] were 1.61 µM and above 50 µM, respectively.

For `C#Cc1cccc(Nc2nc3cc(C(=O)O)ccc3c3cnc(NCCOCC)nc23)c1` [drawing 490], the half-inhibitory concentration (IC50) in assay [1] came out at 0.69 µM; in assay [2], 2.41 µM.

Turning to `C#Cc1cccc(Nc2nc3cc(C(=O)O)ccc3c3cnc(NCCCOCC)nc23)c1` [drawing 491], the values for the half-inhibitory concentration (IC50) in assay [1] and in assay [2] were 0.48 µM and 1.04 µM, respectively.

Consider `C#Cc1cccc(Nc2nc3cc(C(=O)O)ccc3c3cnc(NCCCOC(C)C)nc23)c1` [drawing 492], for which the IC50 in assay [1] was 0.97 µM; in assay [2], 3.1 µM.

On to `O=C(O)c1ccc2c(c1)nc(Nc1cccc(Cl)c1)c1nc(O)ncc12` [drawing 493], for which the half-maximal inhibitory concentration (IC50) in assay [1] was 15.8 µM; in assay [2] it was above 50 µM.

Turning to `Cc1ncc2c(n1)c(Nc1cccc(Cl)c1)nc1cc(C(=O)O)ccc12` [drawing 494], the IC50 in assay [1] was 8.88 µM; in assay [2], above 50 µM.

On to `C#Cc1cccc(Nc2nc3cc(C(=O)OC)ccc3c3cnc(NOC)nc23)c1` [drawing 495], for which the concentration for half-maximal inhibition (IC50) is 40 µM in assay [1] and above 50 µM in assay [2].

For the molecule `COC(=O)c1ccc2c(c1)nc(Nc1cccc(Cl)c1)c1nc(NCCC(N)=O)ncc12` [drawing 496], the figures for the IC50 in assay [1] and in assay [2] were 2.62 µM and 25.5 µM, respectively.

Regarding `NC(=O)CCNc1ncc2c(n1)c(Nc1cccc(Cl)c1)nc1cc(C(=O)O)ccc12` [drawing 497], the IC50 in assay [1] was 20.9 µM; in assay [2], above 50 µM.

Take `O=C(O)CCNc1ncc2c(n1)c(Nc1cccc(Cl)c1)nc1cc(C(=O)O)ccc12` [drawing 498]: the IC50 in assay [1] was 43.5 µM; in assay [2], above 50 µM.

As to `Cc1cccc(Nc2nc3cc(C(=O)O)ccc3c3cnccc23)c1` [drawing 499], the IC50 in assay [1] was determined as 2.23 µM; in assay [2], 38 µM.

In the case of `O=C(O)c1ccc2c(c1)nc(Nc1cccc(C(F)(F)F)c1)c1ccncc12` [drawing 500], the IC50 in assay [1] was 2.6 µM; in assay [2] it was 27.2 µM.

With `O=C(O)c1ccc2c(c1)nc(Nc1cc(F)cc(F)c1)c1nc(NC3CC3)ncc12` [drawing 501], the IC50 in assay [1] amounted to 14.9 µM; in assay [2] it was 16.1 µM.

For the molecule `O=C(O)c1ccc2c(c1)nc(Nc1cccc(F)c1)c1nc(NC3CC3)ncc12` [drawing 502], the values for the concentration for half-maximal inhibition (IC50) in assay [1] and in assay [2] were 9.89 µM and 2.81 µM, respectively.

In the case of `COc1cccc(Nc2nc3cc(C(=O)O)ccc3c3cnc(NC4CC4)nc23)c1` [drawing 503], the IC50 in assay [1] was 8.68 µM; in assay [2], 3.48 µM.

Consider `CN(C)CCNc1ncc2c(n1)c(Nc1ccc(F)c(Cl)c1)nc1cc(C(=O)O)ccc12` [drawing 504], for which the IC50 turned out to be 1.52 µM in assay [1] and 44.9 µM in assay [2].

Turning to `O=C(O)c1ccc2c(c1)nc(Nc1ccc(F)c(Cl)c1)c1nc(NCc3ccccn3)ncc12` [drawing 505], the IC50 in assay [1] was 11.1 µM; in assay [2] it was above 50 µM.

For the molecule `COC(CNc1ncc2c(n1)c(Nc1ccc(F)c(Cl)c1)nc1cc(C(=O)O)ccc12)OC` [drawing 506], the half-maximal inhibitory concentration (IC50) was found to be 2.86 µM in assay [1] and 41.5 µM in assay [2].

`NC(=O)c1ccc2c(c1)nc(Nc1cccc(C(F)(F)F)c1)c1nc(NC3CC3)ncc12` [drawing 507]: the IC50 was 0.33 µM in assay [1] and above 50 µM in assay [2].

On to `O=C(NC1CC1)c1ccc2c(c1)nc(Nc1cccc(C(F)(F)F)c1)c1nc(NC3CC3)ncc12` [drawing 508], for which the IC50 in assay [1] was 2.73 µM; in assay [2], 16 µM.

Consider `CNC(=O)c1ccc2c(c1)nc(Nc1cccc(C(F)(F)F)c1)c1nc(NC3CC3)ncc12` [drawing 509], for which the IC50 in assay [1] is 3 µM; in assay [2], 18.9 µM.

For `O=C(O)c1ccc2c(c1)nc(Nc1ccc(F)c(Cl)c1)c1nc(NCc3cccnc3)ncc12` [drawing 510], the IC50 worked out at 3.16 µM in assay [1] and 20.9 µM in assay [2].

For `O=C(O)c1ccc2c(c1)nc(Nc1ccccc1)c1nc(Nc3ccccc3)ncc12` [drawing 512], the IC50 was 40.1 µM in assay [1] and 3.72 µM in assay [2].

For the molecule `CC(C)OC(=O)Nc1ccc2c(c1)nc(Nc1cccc(C(F)(F)F)c1)c1nc(NC3CC3)ncc12` [drawing 513], the figures for the IC50 in assay [1] and in assay [2] were 0.9 µM and 9.88 µM, respectively.
